According to ChEMBL document CHEMBL5233268, “Application of marine natural products in drug research” (Bioorg Med Chem, 2021):
Values after ≈ are worked out from the molar mass of the structure shown.

Assays:
KB = test: Cytotoxicity against human KB cells assessed as inhibition of cell growth; format: functional, cell-based
5'-nucleotidase = 5'-nucleotidase (Homo sapiens, UniProt P21589); test: Inhibition of human N-terminal Ecto-5'-nucleotidase
Chain of 5'-nucleotidase (P21589 whole entry): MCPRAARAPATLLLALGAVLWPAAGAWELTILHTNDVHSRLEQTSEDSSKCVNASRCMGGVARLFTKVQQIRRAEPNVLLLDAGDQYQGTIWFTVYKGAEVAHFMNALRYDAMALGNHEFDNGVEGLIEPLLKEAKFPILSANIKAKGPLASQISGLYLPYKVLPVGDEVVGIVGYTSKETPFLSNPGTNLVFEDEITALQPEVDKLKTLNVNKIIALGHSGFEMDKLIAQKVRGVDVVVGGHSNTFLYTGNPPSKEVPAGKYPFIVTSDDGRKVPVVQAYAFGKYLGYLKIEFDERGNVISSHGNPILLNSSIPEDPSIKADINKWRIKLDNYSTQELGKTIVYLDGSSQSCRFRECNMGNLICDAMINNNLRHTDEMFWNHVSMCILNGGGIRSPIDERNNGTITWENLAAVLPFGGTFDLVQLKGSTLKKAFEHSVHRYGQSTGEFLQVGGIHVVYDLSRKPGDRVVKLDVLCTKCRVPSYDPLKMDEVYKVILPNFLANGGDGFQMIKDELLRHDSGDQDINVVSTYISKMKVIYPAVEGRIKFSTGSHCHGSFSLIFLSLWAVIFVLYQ

Row | IC50 (5'-nucleotidase) | SMILES | IC50 (KB)
1 |  | COc1ccc(C[C@H]2NC(=O)/C=C/C[C@@H]([C@H](C)[C@H]3O[C@@H]3c3ccccc3)OC(=O)[C@H](CC(C)C)OC(=O)CCNC2=O)cc1 [ARENASTATIN A] | 0.005 ng/mL (≈ 0.00824 nM)
2 | 1600 nM | Nc1ncc(/C=C/CNC(=O)c2cc(Br)c(Br)[nH]2)[nH]1 [OROIDIN] | 
3 | 1600 nM | Nc1ncc(/C=C/CNC(=O)c2ccc[nH]2)[nH]1 [CLATHRODIN] | 
